According to ChEMBL document CHEMBL1201862, “PubChem BioAssay data set” (2004):
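Each compound was tested at five concentrations against cells in 96-well plates for 48 hours. At the GI50, growth is halved.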 Calls of active or inactive are those of the source. Rule as the data show it: active = GI50 up to about 1.1 µM and inactive = higher.

What was measured:
Assay in all cases: DTP human tumour cell line panel, 48 h
ACHN = system: ACHN
SNB-75 = system: SNB-75
SK-MEL-28 = system: SK-MEL-28
IGROV-1 = system: IGROV-1
UO-31 = system: UO-31
Malme-3M = system: Malme-3M
SK-MEL-5 = system: SK-MEL-5
HCT-15 = system: HCT-15
SF-539 = system: SF-539
SNB-19 = system: SNB-19
COLO 205 = system: COLO 205
786-0 = system: 786-0
UACC-62 = system: UACC-62
U-251 = system: U-251
OVCAR-4 = system: OVCAR-4
NCI-H226 = system: NCI-H226
SK-OV-3 = system: SK-OV-3
RXF 393 = system: RXF 393

Row | SMILES | GI50 (ACHN) | GI50 (SNB-75) | GI50 (SK-MEL-28) | GI50 (IGROV-1) | GI50 (UO-31) | GI50 (Malme-3M) | GI50 (SK-MEL-5) | GI50 (HCT-15) | GI50 (SF-539) | GI50 (SNB-19) | GI50 (COLO 205) | GI50 (786-0) | GI50 (UACC-62) | GI50 (U-251) | GI50 (OVCAR-4) | GI50 (NCI-H226) | GI50 (SK-OV-3) | GI50 (RXF 393)
1 | O=c1ccc2ccccc2c2ccccc12 | 3.97 µM (inactive) | 2.94 µM (inactive) | 5.46 µM (inactive) | 6.12 µM (inactive) | 3.81 µM (inactive) | 10.4 µM (inactive) | 2.9 µM (inactive) | 1.87 µM | 1.97 µM (inactive) | 2.82 µM (inactive) | 4.6 µM (inactive) | 2.77 µM (inactive) | 2.27 µM (inactive) | 2.34 µM (inactive) | 8.07 µM (inactive) | 4.27 µM (inactive) | 3.6 µM (inactive) | 
2 | Nc1nc(N)c(-c2ccccc2)c(C(=O)Nc2ccc(Cl)c(Cl)c2)n1 | > 100 µM (inactive) | > 100 µM (inactive) | > 100 µM (inactive) | > 100 µM (inactive) | > 100 µM (inactive) | > 100 µM (inactive) | > 100 µM (inactive) | > 100 µM | > 100 µM (inactive) | > 100 µM (inactive) |  | > 100 µM (inactive) | > 100 µM (inactive) | > 100 µM (inactive) | > 100 µM (inactive) | > 100 µM (inactive) |  | > 100 µM (inactive)
3 | O=C(CCC(=O)Nc1cccc(Cl)c1)CC(=O)c1ccc(Cl)cc1 | > 100 µM (inactive) | > 100 µM (inactive) | > 100 µM (inactive) | > 100 µM (inactive) | > 100 µM (inactive) | > 100 µM (inactive) |  | > 100 µM | > 100 µM (inactive) | > 100 µM (inactive) | > 100 µM (inactive) | > 100 µM (inactive) | > 100 µM (inactive) |  | > 100 µM (inactive) | > 100 µM (inactive) | > 100 µM (inactive) | 
4 | Cc1cccc(/C=N/C23CC4CC(CC(C4)C2)C3)c1 | > 100 µM (inactive) | > 100 µM (inactive) | > 100 µM (inactive) | > 100 µM (inactive) | > 100 µM (inactive) | > 100 µM (inactive) | > 100 µM (inactive) | > 100 µM | > 100 µM (inactive) | > 100 µM (inactive) | > 100 µM (inactive) | > 100 µM (inactive) | > 100 µM (inactive) | > 100 µM (inactive) | > 100 µM (inactive) | > 100 µM (inactive) | > 100 µM (inactive) | > 100 µM (inactive)
5 | COc1ccc(C2CC(C)=Nc3c(O)nc(S)nc3N2)cc1 (stereo not drawn) | 18.7 µM (inactive) | 17.6 µM (inactive) | 27 µM (inactive) | 18.8 µM (inactive) | 17.9 µM (inactive) | > 100 µM (inactive) | 16.7 µM (inactive) | 16.3 µM | 24.5 µM (inactive) | 18.7 µM (inactive) | 18.6 µM (inactive) | 17.1 µM (inactive) | 17.4 µM (inactive) | 17.3 µM (inactive) |  | 17.2 µM (inactive) | 18.1 µM (inactive) | 18.8 µM (inactive)
6 | O=C1C(c2ccccc2)=C(c2ccccc2)C(c2ccc(-c3ccc(C4=C(c5ccccc5)C(=O)C(c5ccccc5)=C4c4ccccc4)cc3)cc2)=C1c1ccccc1 |  | 48.1 µM (inactive) |  | > 100 µM (inactive) | > 100 µM (inactive) | > 100 µM (inactive) | > 100 µM (inactive) | > 100 µM | > 100 µM (inactive) | > 100 µM (inactive) | > 100 µM (inactive) | > 100 µM (inactive) | > 100 µM (inactive) | > 100 µM (inactive) | > 100 µM (inactive) | > 100 µM (inactive) | > 100 µM (inactive) | > 100 µM (inactive)
7 | O=C1CC2CC=C[C@H]3c4cc5c(cc4C(=O)N1C23)OCO5 (stereo partly drawn) | > 50 µM (inactive) | > 50 µM (inactive) | > 50 µM (inactive) | > 50 µM (inactive) | > 50 µM (inactive) | > 50 µM (inactive) |  | > 50 µM | > 50 µM (inactive) | > 50 µM (inactive) | > 50 µM (inactive) | > 50 µM (inactive) | > 50 µM (inactive) | > 50 µM (inactive) |  | > 50 µM (inactive) | > 50 µM (inactive) | > 50 µM (inactive)
8 | Cc1ccc(NC(=O)SCCC(=O)O)cc1 | > 100 µM (inactive) | 8.95 µM (inactive) | > 100 µM (inactive) | 47.4 µM (inactive) | > 100 µM (inactive) |  |  | > 100 µM | > 100 µM (inactive) | > 100 µM (inactive) | > 100 µM (inactive) | > 100 µM (inactive) | 45.7 µM (inactive) | > 100 µM (inactive) | > 100 µM (inactive) | > 100 µM (inactive) |  | > 100 µM (inactive)
9 | COC[C@@H]1[C@H]2OC(C)(C)O[C@H]2C(=O)N1C(=O)c1ccc(OC)cc1 | > 100 µM (inactive) | > 100 µM (inactive) | > 100 µM (inactive) | > 100 µM (inactive) | > 100 µM (inactive) | > 100 µM (inactive) | > 100 µM (inactive) | > 100 µM | > 100 µM (inactive) | > 100 µM (inactive) | > 100 µM (inactive) | > 100 µM (inactive) | > 100 µM (inactive) | > 100 µM (inactive) | > 100 µM (inactive) | > 100 µM (inactive) | > 100 µM (inactive) | > 100 µM (inactive)
10 | COc1ccc(C2COc3c(ccc(OC)c3OC)C2=O)cc1OC (stereo not drawn) | > 100 µM (inactive) | > 100 µM (inactive) | > 100 µM (inactive) | > 100 µM (inactive) | > 100 µM (inactive) | > 100 µM (inactive) | > 100 µM (inactive) |  | > 100 µM (inactive) | > 100 µM (inactive) | > 100 µM (inactive) | > 100 µM (inactive) | > 100 µM (inactive) | > 100 µM (inactive) | > 100 µM (inactive) | > 100 µM (inactive) | > 100 µM (inactive) | > 100 µM (inactive)
11 | O=c1c2ccccc2nc(-c2cccc(Cl)c2)n1NC1OC(CO)C(O)C(O)C1O (stereo not drawn) | > 100 µM (inactive) | > 100 µM (inactive) | > 100 µM (inactive) | > 100 µM (inactive) | > 100 µM (inactive) | > 100 µM (inactive) | > 100 µM (inactive) | > 100 µM | > 100 µM (inactive) | > 100 µM (inactive) | > 100 µM (inactive) | > 100 µM (inactive) | > 100 µM (inactive) | > 100 µM (inactive) | > 100 µM (inactive) | > 100 µM (inactive) | > 100 µM (inactive) | 
12 | O=c1[nH]c(=O)n(C2CC(O)C(CO)O2)cc1C#Cc1ccc(C(F)(F)F)cc1 (stereo not drawn) | > 100 µM (inactive) | 61.5 µM (inactive) | > 100 µM (inactive) | > 100 µM (inactive) | > 100 µM (inactive) | > 100 µM (inactive) | > 100 µM (inactive) | > 100 µM | > 100 µM (inactive) | > 100 µM (inactive) | > 100 µM (inactive) | > 100 µM (inactive) | > 100 µM (inactive) | > 100 µM (inactive) | > 100 µM (inactive) | > 100 µM (inactive) | > 100 µM (inactive) | > 100 µM (inactive)
13 | O=C(Nc1ccn(CCOC(=O)c2ccccc2)c(=O)n1)c1ccccc1 | > 100 µM (inactive) | > 100 µM (inactive) | > 100 µM (inactive) | > 100 µM (inactive) | > 100 µM (inactive) | > 100 µM (inactive) | > 100 µM (inactive) | > 100 µM | > 100 µM (inactive) |  | > 100 µM (inactive) | > 100 µM (inactive) | > 100 µM (inactive) | > 100 µM (inactive) | > 100 µM (inactive) | > 100 µM (inactive) | > 100 µM (inactive) | > 100 µM (inactive)
14 | CN(C)CCN(C)CC1COC(C)(C)O1 (stereo not drawn) | > 100 µM (inactive) | > 100 µM (inactive) | > 100 µM (inactive) | > 100 µM (inactive) | > 100 µM (inactive) | > 100 µM (inactive) | > 100 µM (inactive) |  | > 100 µM (inactive) | > 100 µM (inactive) | > 100 µM (inactive) | > 100 µM (inactive) | > 100 µM (inactive) | > 100 µM (inactive) | > 100 µM (inactive) | > 100 µM (inactive) | > 100 µM (inactive) | > 100 µM (inactive)
15 | Cc1cccc(NC(=O)C(=O)Cc2nc3ccccc3nc2O)c1C | > 100 µM (inactive) | 84.9 µM (inactive) | > 100 µM (inactive) | > 100 µM (inactive) | > 100 µM (inactive) | > 100 µM (inactive) | > 100 µM (inactive) | > 100 µM | > 100 µM (inactive) | > 100 µM (inactive) | > 100 µM (inactive) | > 100 µM (inactive) | > 100 µM (inactive) | > 100 µM (inactive) | > 100 µM (inactive) | > 100 µM (inactive) | > 100 µM (inactive) | > 100 µM (inactive)
16 | C[C@]12CCC(=O)C=C1CC[C@@H]1C2CC[C@]2(C)Nc3[nH]ncc3CC12 (stereo partly drawn) | > 100 µM (inactive) | 30.3 µM (inactive) | > 100 µM (inactive) | > 100 µM (inactive) | > 100 µM (inactive) | > 100 µM (inactive) | > 100 µM (inactive) | > 100 µM | > 100 µM (inactive) |  |  | > 100 µM (inactive) | > 100 µM (inactive) | > 100 µM (inactive) | > 100 µM (inactive) | 60.3 µM (inactive) | > 100 µM (inactive) | > 100 µM (inactive)
